From ChEMBL document CHEMBL3272304, “Syntheses of heterocylic fused thiazole acetic acids. 2” (1976)
The source made the active and inactive calls. The rule behind the calls is not given here.

What was measured:
Assay type in all cases: functional
[1] = system: Mycobacterium tuberculosis; assay: Antitubercular activity against Mycobacterium tuberculosis H37Rv
[2] = system: Lewis lung carcinoma cell line; assay: Antimetastatic activity against mouse LLC cells allografted in BDF1 mouse assessed as increase in host survival
Mus musculus = assay: Antidepressant activity in po dosed mouse assessed as antagonism of reserpine-induced ptosis
[3] = system: Lewis lung carcinoma cell line; assay: Antimetastatic activity against mouse LLC cells allografted in BDF1 mouse assessed as increase in host survival at 150 mg/kg relative to control

| Structure (SMILES) | Activity [1] | ED50 (Mus musculus) | other results |
| --- | --- | --- | --- |
| Br.COC(=O)CC1Sc2nc3ccccc3n2C1(O)c1ccccc1 (configuration not stated) | 5 µg/mL | – | – |
| O=C(O)Cc1sc2nc3ccccc3n2c1-c1ccc(Cl)cc1 | – | – | Activity [2]: Active |
| Br.COC(=O)CC1SC2=NCCN2C1(O)c1ccc(Cl)cc1 (configuration not stated) | 1 µg/mL | 0.5 mg/kg | – |
| CCOC(=O)CC1Sc2nc(=O)cc(NC(C)=O)n2C1(O)c1ccc(Cl)cc1 (configuration not stated) | 1 µg/mL | – | – |
| CCOC(=O)CC1Sc2nc3ccccc3n2C1(O)c1ccc(Cl)cc1 (configuration not stated) | 1 µg/mL | – | Activity [2]: Active |
| Br.COC(=O)CC1SC2=NCCN2C1(O)c1ccccc1 (configuration not stated) | 5 µg/mL | 0.5 mg/kg | – |
| O=C(O)CC1Sc2nc3ccccc3n2C1(O)c1ccc(Cl)cc1 (configuration not stated) | – | – | T/C [3]: 37% |
| Br.CCOC(=O)CC1SC2=NCCN2C1(O)c1ccccc1 (configuration not stated) | 5 µg/mL | 0.27 mg/kg | – |
| NNC(=O)c1ccncc1 [ISONIAZID] | 0.005 µg/mL | – | – |
| Br.CCOC(=O)CC1SC2=NCCCN2C1(O)c1ccc(Cl)cc1 (configuration not stated) | – | 0.118 mg/kg | – |
| Br.CCOC(=O)CC1SC2=NCCN2C1(O)c1ccc(Cl)cc1 (configuration not stated) | 5 µg/mL | – | – |
| COC(=O)CC1Sc2nc3ccccc3n2C1(O)c1ccc(Cl)cc1 (configuration not stated) | 2 µg/mL | – | Activity [2]: Active |
| CCOC(=O)CC(Sc1nc2ccccc2[nH]1)C(=O)c1ccc(Cl)cc1 (configuration not stated) | 1 µg/mL | – | – |
| COC(=O)CC(Sc1nc2ccccc2[nH]1)C(=O)c1ccc(Cl)cc1 (configuration not stated) | 1 µg/mL | – | – |
| Br.O=C(O)CC1SC2=NCCN2C1(O)c1ccc(Cl)cc1 (configuration not stated) | – | 0.22 mg/kg | – |
| Br.O=C(O)CC1SC2=NCCCN2C1(O)c1ccc(Cl)cc1 (configuration not stated) | – | 0.25 mg/kg | Activity [2]: inactive |
